Results as given in article PMC9530881 (Cancer Science, 2022).

What was measured:
ALK4 = details: ref [26]; cited from earlier work
MSTN [1] = test: Smad2/3 nuclear localization induced by MSTN in C2C12 cells; format: cell-based; details: MID-35 3 μM or SB-431542 10 μM preincubated 1 h with MSTN 10 ng/ml
TGF‐β = format: cell-based; details: HepG2, (SBE)4-luc; TGF-β 5 ng/ml, 8 h; MID-35 3 μM or SB-431542 10 μM, 1 h pretreatment; n = 3
ALK5 = details: ref [26]; cited from earlier work
ALK7 = details: ref [26]; cited from earlier work
GDF‐11 = format: cell-based; details: HepG2, (SBE)4-luc; GDF-11 10 ng/ml, 8 h; MID-35 3 μM or SB-431542 10 μM, 1 h pretreatment; n = 3
MSTN [2] = format: cell-based; details: HepG2, (SBE)4-luc; MSTN 10 ng/ml, 8 h; MID-35 3 μM or SB-431542 10 μM, 1 h pretreatment; n = 3
cancer cachexia patients = details: cited from earlier work
ghrelin receptor = details: ref [8]; cited from earlier work
[3] = tested on: cancer cachexia model mice (LLC cells); test: LLC cancer cachexia model mice, MID-35 and/or anamorelin; format: in vivo, C57BL/6J mice; details: MID-35 i.m. and/or anamorelin p.o.; 22 days after LLC transplantation; Figure 6B
[4] = men who received 100 mg in a clinical trial; ref not given; cited from earlier work
vascular function = details: via binding to BMP9 and BMP10; ref [36]; cited from earlier work
[5] = patients with non-small-cell lung cancer, ref [9], [10], [11]

NC(=O)c1ccc(-c2nc(-c3ccc4c(c3)OCO4)c(-c3ccccn3)[nH]2)cc1 [SB‐431542]
ALK4 kinase inhibition (ALK4): known kinase inhibitor
Smad2 nuclear accumulation (MSTN [1]): completely blocked
inhibition of TGF-β-induced reporter activity (TGF‐β): suppressed
ALK5 kinase inhibition (ALK5): known kinase inhibitor
ALK7 kinase inhibition (ALK7): known kinase inhibitor
inhibition of GDF-11-induced reporter activity (GDF‐11): suppressed
inhibition of MSTN-induced transcriptional activity (MSTN [2]): suppressed

CN(C)N(C)C(=O)[C@@]1(Cc2ccccc2)CCCN(C(=O)[C@@H](Cc2c[nH]c3ccccc23)NC(=O)C(C)(C)N)C1 [anamorelin]
lean body mass (cancer cachexia patients; clinical trial, cancer cachexia patients, ref not given): increased lean body mass
appetite (cancer cachexia patients; patients with cancer cachexia, oral, ref [8]): augments appetite
QOL (cancer cachexia patients; [5]): improvement of QOL
weight gain (cancer cachexia patients; [5]): contribute to weight gain
ghrelin receptor activity (ghrelin receptor): ghrelin receptor agonist
gastrocnemius weight per body weight without tumor [3]: increased
plasma Cmax average [4]: 707 ± 307 ng/mL

B1: ActRIIB: activin receptor type IIB; binds to both BMP9 and BMP10 (protein, UniProt Q13705 19-512, looked up)
Activin receptor type-2B: SGRGEAETRECIYYNANWELERTNQSGLERCEGEQDKRLHCYASWRNSSGTIELVKKGCWLDDFNCYDRQECVATEENPQVYFCCCEGNFCNERFTHLPEAGGPEVTYEPPPTAPTLLTVLAYSLLPIGGLSLIVLLAFWMYRHRKPPYGHVDIHEDPGPPPPSPLVGLKPLQLLEIKARGRFGCVWKAQLMNDFVAVKIFPLQDKQSWQSEREIFSTPGMKHENLLQFIAAEKRGSNLEVELWLITAFHDKGSLTDYLKGNIITWNELCHVAETMSRGLSYLHEDVPWCRGEGHKPSIAHRDFKSKNVLLKSDLTAVLADFGLAVRFEPGKPPGDTHGQVGTRRYMAPEVLEGAINFQRDAFLRIDMYAMGLVLWELVSRCKAADGPVDEYMLPFEEEIGQHPSLEELQEVVVHKKMRPTIKDHWLKHPGLAQLCVTIEECWDHDAEARLSAGCVEERVSLIRRSVNGTTSDCLVSLVTSVTNVDLPPKESSI
vascular side-effects (vascular function): vascular side‐effects
